Results from patent publication US20050038058A1, “Novel compounds and methods for therapy” (Institute of Organic Chemistry and Biochemistry, priority 2001, published 2005).
In brackets after ≈: the same amount, converted by molar mass. Read-outs that look alike come from different tables or passages of the source. Marks after values point to notes of the source that are not given here.

Tests used:
MSV [1] = assay: MSV-induced transformation of murine embryo fibroblast C3H/3T3 cell cultures; type: cell-based; settings: Mus musculus; MSV-induced C3H cell transformation; Table 2; read-out: EC50 MSV (C3H)
Procedure: The inhibitory effect of the test compounds on MSV-induced transformation of murine embryo fibroblast C3H/3T3 cell cultures was examined microscopically at day 6 post infection. MSV was added at 75 focus-forming units to the cell cultures. The detailed procedures for the antiretroviral evaluations has been described in detail before (Balzarini et al., AIDS 5:21-28, 1991; Balzarini et al., Antimicrob. Agents Chemother. 37:332-338, 1993; De Clercq et al., Proc. Soc. Exp. Biol. Med. 137:590-594, 1971).

[2] = Inhibition of CEM cell growth (cytostatic activity); type: cell-based; settings: human; 50% cytostatic concentration, CEM cell proliferation; Table 1; read-out: CC50 (CEM)
Procedure: Cytostatic and antimetabolic effect of acyclic nucleoside phosphonates in vitro. The assays to examine the inhibition of CEM cell growth by the test compounds have been described previously (Balzarini et al., AIDS 5:21-28, 1991). The 50% cytostatic concentration (CC50) was defined as the concentration of compound that reduced the number of living cells by 50% . To measure MT-4 cell toxicity of the test compounds, 5×10^4 MT-4 cells were incubated in the wells of 96-well microplates in the presence or absence of different concentrations of the test compounds for 5 days at 37° C. The CC50 was then calculated from the number of living cells counted under a microscope by the trypan blue exclusion method.

HIV-1(IIIB) [3] = assay: HIV-1(IIIB) p24 antigen production in PBL (PHA-stimulated PBMC); type: cell-based; settings: Human immunodeficiency virus 1, IIIB, PBMC
Procedure: Peripheral blood mononuclear cells (PBMC) from healthy donors were isolated by density centrifugation (Lymphoprep; Nycomed Pharma, AS Diagnostics, Oslo, Norway) and stimulated with phytohemagglutin (PHA) (Sigma Chemical Co., Bornem, Belgium) for 3 days. The activated cells (PHA-stimulated blasts) were washed with PBS and viral infections were done as described by the AIDS clinical trial group protocols. Briefly, PBMCs (2×10^5/200 well) were plated in the presence of serial dilutions of the test compound and were infected with HIV stocks at 1000 CCID50 per mL. At day 4 post-infection, 125 μl of the supernatant of the infected cultures was removed and replaced with 150 μl of fresh medium containing the test compounds at the appropriate concentrations. At 7 days after plating the cells, p24 antigen was detected in the culture supernatant by an enzyme-linked immunosorbent assay (NEN, Paris, France).

HIV-2(ROD) = assay: HIV-2(ROD)-induced cytopathicity in CEM cell cultures; type: cell-based; settings: Human immunodeficiency virus 2, CCRF-CEM; giant cell formation; Table 2; read-out: EC50 HIV-2 (ROD) (CEM)
From the text: (§1) Viruses. The origins of MSV, HIV type 1 (HIV-1) (strain IIIB and Ba-L), HIV-2 (strain ROD) and FIV (strain Petaluma) have been described previously (Balzarini et al., AIDS 5: 21-28, 1991; De Clercq et al., Proc. Soc. Exp. Biol. Med. 137:590-594, 1971; Egberink et al., Proc. Natl. Acad. Sci. 87:3087-3091, 1990; Hartmann et al., Antiviral Chem. Chemother. 5:13-19, 1994; Popovic et al., Science 224:497-500, 1984). HIV-1(IIIB) and HIV-2(ROD) stocks were obtained from supernatants of virus-infected MT-4 cell cultures. HIV-1BaL was expanded in human primary M/M, whose supernatants were collected, filtered and stored at −80° C. before use. Characteristics of viral stocks used for this study were 2.1×10^8 HIV-RNA genomes/ml (corresponding to 35 ng of p24 antigen) and 5,000 tissue culture infectious doses 50% per ml (TCID50/ml) as assessed by virus titration in other primary M/M cultures. The isolation and characterization of the clinical HIV-1 isolates L1S, L6S and L6S/PMEA has been reported (Thormar et al., Proc. Natl. Acad. Sci. USA 93:3283-3287, 1995; Van Laethem et al., AIDS 15:553-561, 2001). […] HIV-1/L6S/PMEA is the clinical isolate HIV-1/L6S that has been isolated after culturing the virus for 11 passages in the presence of increasing concentrations of PMEA (adefovir).
(§2) In vitro antiviral assays. The activity against HIV-1- and HIV-2-induced cytopathicity was examined in MT-4 cell cultures at day 5 post infection and based on the determination of cell viability by trypan blue dye staining or in CEM cell cultures at day 4 to 5 post infection and based on the microscopical examination of virus-induced giant cell formation. HIV-1 and HIV-2 were added at 100 CCID50 to the cell cultures.

[4] = Alteration of C3H cell morphology (minimal inhibitory concentration); type: cell-based, murine; settings: mouse; microscopically visible alteration of cell morphology; > means no visible toxicity at the indicated concentration; read-out: CC50 C3H (minimal inhibitory concentration)
C3H cells = assay: as above; type: cell-based, murine; settings: Table 2, footnote c
HIV-1(IIIB) [5] = assay: HIV-1(IIIB)-induced cytopathicity in CEM cell cultures; type: cell-based
From the text: as §1, §2

HIV = assay: Anti-HIV activity across HIV-1 and HIV-2 in CEM and MT-4 cell cultures; type: cell-based; settings: Human immunodeficiency virus 1, MT4; HIV-1 and HIV-2 in CEM and MT-4 cells; read-out: EC50 values for HIV (range over virus/cell systems)
Procedure: as §2

MSV [6] = type: in vivo; settings: for Number of Mice not Developing a Tumor (percent): intraperitoneal, 5 daily doses, newborn NMRI mice
HIV-1/L1S = type: cell-based; settings: measured against the laboratory HIV-1/IIIB strain in CEM cell cultures
From the text: as §1, §2

HIV-1/L6S = type: cell-based; settings: measured against the laboratory HIV-1/IIIB strain in CEM cell cultures
From the text: as §1, §2

HIV-1/L6S/PMEA = type: cell-based; settings: measured against the laboratory HIV-1/IIIB strain in CEM cell cultures
From the text: as §1, §2

Toxicity in CrFK cells = type: cell-based, feline; settings: cat; Table 2
HIV-1(IIIB) [7] = assay: HIV-1(IIIB)-induced cytopathicity in MT-4 cell cultures; type: cell-based; settings: Human immunodeficiency virus 1, IIIB, MT4; Table 2
From the text: as §1, §2

In the case of `Nc1ncnc2c1ncn2CCOCP(=O)(O)O` [PMEA, 9-[(2-phosphono-methoxy)ethyl]adenine, reference compound], the EC50 (MSV [1]) is reported as 0.62 ± 0.27 µg/mL (≈ 2.27 µM), the CC50 [2] is reported as 16 µg/mL (≈ 58.6 µM) and the EC50 (HIV-1(IIIB) [3]; p24 antigen production, Table 2, read-out: EC50 HIV-1 (IIIB) (PBL)) is reported as 0.55 ± 0.41 µg/mL (≈ 2.01 µM). For the same compound, the EC50 (HIV-1(IIIB) [3]; read-out: EC50 HIV-1(IIIB) in PBL) was 1.9 µg/mL (≈ 6.95 µM), the EC50 (HIV-2(ROD)) was 1.9 ± 1.1 µg/mL (≈ 6.95 µM) and the Minimal concentration causing visible cell morphology alteration [4] was greater than 40 µg/mL. The “Compound concentration at which morphological toxicity was observed, C3H (value between parentheses)” value (C3H cells) was 200 μg/ml, the EC50 (HIV-1(IIIB) [5]; Human immunodeficiency virus 1, CCRF-CEM, HIV-1 (IIIB) in CEM, no addition, Table 3, read-out: EC50 as such) was 0.94 ± 0.24 µg/mL (≈ 3.44 µM) and the EC50 (HIV-1(IIIB) [5]; Human immunodeficiency virus 1, CCRF-CEM, HIV-1 (IIIB) in CEM, Ade 100 μM, read-out: EC50 upon addition of Ade (100 μM)) was 1.9 ± 1.3 µg/mL (≈ 6.95 µM). It also gave an EC50 (HIV-1(IIIB) [5]; Human immunodeficiency virus 1, CCRF-CEM, HIV-1 (IIIB) in CEM, Ado 400 μM, read-out: EC50 upon addition of Ado (400 μM)) of 1.6 ± 0.4 µg/mL (≈ 5.86 µM), an EC50 (HIV-1(IIIB) [5]; Human immunodeficiency virus 1, CCRF-CEM, HIV-1 (IIIB) in CEM, Guo 10 μM, read-out: EC50 upon addition of Guo (10 μM)) of 1 ± 0.8 µg/mL (≈ 3.66 µM) and an EC50 (HIV-1(IIIB) [5]; Human immunodeficiency virus 1, CCRF-CEM, HIV-1 (IIIB) in CEM, dCyd 1 mM, read-out: EC50 upon addition of dCyd (1 mM)) of 2.1 ± 0.19 µg/mL (≈ 7.69 µM). For the same compound, the EC50 (HIV-1(IIIB) [5]; Human immunodeficiency virus 1, CCRF-CEM, HIV-1 (IIIB) in CEM, dThd 10 μM, read-out: EC50 upon addition of dThd (10 μM)) was 1.4 ± 0.4 µg/mL (≈ 5.12 µM), the EC50 (HIV-1(IIIB) [5]; Human immunodeficiency virus 1, CCRF-CEM, HIV-1(IIIB)-induced cytopathicity in CEM cell cultures, Table 1, read-out: EC50 HIV-1 (CEM)) was 0.96 µg/mL (≈ 3.51 µM) and the EC50 (HIV-1(IIIB) [5]; Human immunodeficiency virus 1, IIIB, CCRF-CEM, giant cell formation, mean ±SD of 2 to 4 experiments, Table 2, read-out: EC50 HIV-1 (IIIB) (CEM)) was 0.96 ± 0.24 µg/mL (≈ 3.51 µM). The EC50 (HIV) was 0.96 to 2 µg/mL (≈ 3.51 to 7.32 µM), the “Number of Long-Term Survivors (%) (>30 days)” value (“Number … (%) (>30 days)” for short) (MSV [6]; 4 mg/kg) was 35% and the “Number of Mice not Developing a Tumor (percent)” value (MSV [6]; 4 mg/kg) was 5%. The “Number … (%) (>30 days)” value (MSV [6]; 8 mg/kg) was 77%, the “Number of Mice not Developing a Tumor (percent)” value (MSV [6]; 8 mg/kg) was 44% and the “Number of Mice not Developing a Tumor (percent)” value (MSV [6]; 20 mg/kg) was 89%. For the same compound, the “Number … (%) (>30 days)” value (MSV [6]; 20 mg/kg, premature death not taken into account) was 94%, the “Number of Mice not Developing a Tumor (percent)” value (MSV [6]; 100 mg/kg) was 100^d percent and the “-Fold Resistance HIV-1/L1S” value (HIV-1/L1S) was 2.0 fold. The “-Fold Resistance HIV-1/L6S” value (HIV-1/L6S) was 2.7 fold, the “-Fold Resistance HIV-1/L6S/PMEA” value (HIV-1/L6S/PMEA) was 7.3 fold and the CC50 (Toxicity in CrFK cells) was 18 µg/mL (≈ 65.9 µM). For the same compound, the EC50 (HIV-1(IIIB) [7]) was 1.3 ± 1.1 µg/mL (≈ 4.76 µM).
